The values below come from patent US20100273748A1, “ANTIMICROBIAL THERAPY” (priority 2006, published 2010).

The test system of one test is S. aureus DmprF. Put plainly: Antimicrobial activity of keratinocyte lysates (bacterial growth, OD600). Format: cell-based, Staphylococcus aureus. The method, then: Panel a: NHEKs were stimulated with 1,25D3 (10^−9-10^−7 M) in the presence of the HDAC inhibitor butyrate (BUT; 2 mM) for 24 hours. mRNA abundance was determined by real-time qPCR for cathelicidin and glyceraldehyde-3-phosphate dehydrogenase and normalized to vehicle-treated controls. […] Data shown are means (7SD) of the results from a single stimulation experiment performed in triplicates and are representative of at least three independent experiments (**P<0.01; ***P<0.001; two-way analysis of variance). Panel b: The HDAC inhibitor TSA (200 ng ml^−1) induces cathelicidin in the presence of 1,25D3 (10^−8M). Expression of cathelicidin is dependent on a functional VDR, as pretreatment with the VDR antagonist ZK159222 (10^−7 M) inhibits induction of cathelicidin with BUT (2 mM) in the presence of 1,25D3 (10^−8 M) after 24 hours. Expression of cathelicidin was determined by qPCR as described in Panel a. (*P<0.05; Student's t-test). Panel c: Increased transcript correlates with enhanced cathelicidin protein expression after HDAC inhibitor and 1,25D3 stimulation. NHEKs grown on chamber slides were stimulated with the vehicle, 1,25D3 (10^−8M), BUT (2 mM), or the combination for 24 hours. Cells were stained with a polyclonal anti-LL-37 antibody (followed by an FITC-coupled secondary antibody) and nuclei detected with 4,6-diamidino-2-phenylindole (Bar=30 μM). […] NHEKs were stimulated with 1,25D3 (10^−8M) in combination with the HDAC inhibitor BUT (2 mM) for 24 hours, cells harvested and cell lysates co-incubated with S. aureus DmprF, and bacterial growth monitored over time to determine antimicrobial activity. Media not containing cell lysates or containing cell lysates from unstimulated cells were used as controls.

In test [1] the test system is TLR2. The test can be described thus: qPCR of TLR2 mRNA in cultured keratinocytes. Format: cell-based, human. The note with it: 1,25D3 100 nM, keratinocyte monolayers, 24 hours. Here is the method: Cell culture and stimuli. Human keratinocytes were grown in serum-free EpiLife® cell culture media (Cascade Biologics; Portland, Oreg.) containing 0.06 mM Ca2+ and 1× EpiLife® defined growth supplement (EDGS) at 37° C. under standard tissue culture conditions. Stock cultures were maintained for up to five passages in this media with the addition of 50 U/mL penicillin and 50 μg/mL streptomycin. HaCaT keratinocytes were cultured in DMEM (Sigma, St. Louis, Mo.) with 10% FCS. Cells at 50-70% confluence were stimulated in fresh medium after preincubation with 1,25(OH)2 vitamin D3 (1,25D3; 0.1-100 nM, 4-24 h; Sigma). Alternatively, NHEK were stimulated in the presence of 1,25D3 (0.1-100 nM). Stimuli included TLR2,6 ligands Malp-2 (0.001-0.5 μg/ml; Alexis Biochemicals, Carlsbad, Calif.), FSL-1 (1-2 μg/ml, Invivogen, San Diego, Calif.) and zymosan (50 μg/ml; Invivogen), as well as flagellin (50 ng/ml; Alexis), LPS (1 μg/ml; Sigma), lipoteichoic acid (LTA; 10 μg/ml; Sigma), 19 kDA lipopeptide (10 μg/ml, a kind gift from S. Krutzik, Division of Dermatology, UCLA), CpG DNA (10 μg/ml; Sigma), Ca2+ (1.7 mM), LPS (1 μg/ml; Sigma), TNFα (20 ng/ml; Chemicon Temecula, Calif.) and TGFβ1 (0.1-1 μg/ml; R&D Systems, Minneapolis, Minn.). A TLR2 blocking antibody (αTLR2; clone TL2.1, 5 μg/ml, eBioscience, San Diego, Calif.) was utilized to investigate the role of TLR2 signaling. Furthermore, keratinocytes were pretreated with a vitamin D receptor antagonist (VDR-antagonist ZK159222 Schering AG; 10^-7M) or the CYP inhibitor itraconazole (ITRA; 10^-7M) before stimulation with TGFβ in the presence of 25OH vitamin D3 (25D3, 10 nM, Sigma).
(§1) Real-time RT-PCR (qPCR). RNA was extracted from cells, epidermal constructs or tissue using Trizol® and 1 μg RNA was reverse transcribed using iScript® (BioRad, Hercules, Calif.). Expression of cathelicidin and GAPDH was analysed by real-time RT-PCR. Predeveloped Taqman® assay probes (ABI, Foster City, Calif.) were used for the analyses of the expression of CYP24A1 (24-hydroxylase), CYP27B1 (1α-hydroxylase), CD14, CD36, TLR1, TLR2, TLR4, TLR6 and murine CD14. All analyses were performed in triplicate from 2-5 independent experiments in an ABI Prism® 7000 Sequence Detection System. Fold induction relative to the vehicle treated control in in vitro experiments was calculated using the comparative Ct method, where ΔΔCt is ΔCt(stimulant)-ΔCt(vehicle), ΔCt is Ct(gene)-Ct(GAPDH) and Ct is the cycle at which an arbitrary detection threshold is crossed. For quantification of transcript abundance in tissue samples target gene expression was normalized to GAPDH and compared to non-treated or non-injured skin.

A further test relates to TLR2 protein. The test can be described thus: Western blot of keratinocyte extracts. Format: cell-based, human. The conditions noted are these: 1,25D3 100 nM, monolayer keratinocyte extracts. Here is the method:
Western Blot. Primary keratinocytes were stimulated with 1,25D3 (100 nM) or the vehicle for 24 hours and subsequently lysed in ice-cold lysis buffer (1% Triton-X in PBS containing proteinase inhibitors). After centrifugation, equal amounts of protein were mixed with loading buffer (0.25M Tris HCL, 10% SDS, 10% glycerol, 5% β-mercaptoethanol) and loaded onto a 10% Tris-Tricine gel (GeneMate, Kaysville, Utah). After separation, proteins were blotted onto a PVDF membrane (Millipore, Billerica, Mass.) and blocked in 5% milk (BioRad) in TBS 0.1% Tween20 for 1 h at RT. After washings in TBS 0.1% Tween20, membranes were stained with a rabbit polyclonal anti-CD14 (Abcam, Cambridge, Mass.) or an anti TLR2 antibody (eBioscience), washed again in TBS 0.1% Tween20 and reprobed with a HRP-coupled goat anti-rabbit antibody (DakoCytomation, Glostrup, Denmark). Stained protein was visualized using the Western Lightning® system (Perkin Elmer, Boston, Mass.).

Test [2] concerns TLR2. Put plainly: qPCR in differentiated epidermal constructs. Format: cell-based, human. The note with it: 1,25D3 100 nM. Here is the method:
(§2) Organotypic culture. Epiderm™ human skin-like tissue constructs were obtained from MatTek (Ashland, Mass.) and cultured according to manufacturer's instructions. Skin constructs were cultured in maintenance media (EPI-100-MM, MatTek) and stimulated with Malp-2 (0.1 μg/ml) for 24 hours in the presence of 1,25D3 (100 nM). Skin constructs were cut after stimulation and transferred to Trizol® (Invitrogen, Carlsbad, Calif.) for RNA extraction or immediately frozen in Tissue-Tek® (Sakura, Torrance, Calif.) for immunostaining.
as §1, with “Predeveloped Taqman® assay probes (ABI, Foster City, Calif.) were used for the analyses of the expression of CYP24A1 (24-hydroxylase), CYP27B1 (1α-hydroxylase), CD14, CD36, TLR1, TLR2, TLR4, TLR6 and murine CD14. All analyses were performed in triplicate from 2-5 independent experiments in an ABI Prism® 7000 Sequence Detection System.” left out

A further test deals with CD14. The test can be described thus: qPCR in differentiated epidermal constructs. Format: cell-based, human. The conditions noted are these: 1,25D3 100 nM. The method, then: as §2
as §1, with “Predeveloped Taqman® assay probes (ABI, Foster City, Calif.) were used for the analyses of the expression of CYP24A1 (24-hydroxylase), CYP27B1 (1α-hydroxylase), CD14, CD36, TLR1, TLR2, TLR4, TLR6 and murine CD14. All analyses were performed in triplicate from 2-5 independent experiments in an ABI Prism® 7000 Sequence Detection System.” left out

In the case of `C=C1/C(=C\C=C2/CCC[C@]3(C)[C@@H]([C@H](C)CCCC(C)(C)O)CC[C@@H]23)C[C@@H](O)C[C@@H]1O` [1,25D3, 1,25(OH)2 vitamin D3], the “suppression of S. aureus growth by protein extracts of treated cells” value with S. aureus DmprF (cells treated with 1,25D3 (10^−8M) and butyrate (2 mM), 24 hours) is “maximal ability to suppress the growth”. Also, in the test with S. aureus DmprF (without cell lysate), the “antimicrobial activity of the agents themselves” value is “did not show antimicrobial activity”. For the same molecule, the “TLR2 mRNA expression” value in the test on TLR2 [1] is recorded as “increases expression”. In the test with TLR2 protein, the “TLR2 protein expression (Western Blot)” value is reported as “increases expression”. In addition, the TLR2 transcript abundance result in the test on TLR2 [2] is listed as “show an increase”. In addition, the CD14 transcript abundance entry in the test on CD14 was “show an increase”.
